Source: patent publication US9603813B2, “Visual performance and/or macular pigmentation” (Howard Foundation Holdings Limited, priority 2011, dated 2017)

Legend:
Bovan Goldline hens = assay: Carotenoid contents of egg yolks from hens fed mixed carotenoids (HPLC)
Method: Eight Bovan Goldline hens were obtained at approximately 18 weeks of age.
When the hens were producing at least 8 eggs per day in total, the hens were isolated and fed only a commercial meal. […] The premix provided 250 mg MZ/kg feed with proportions of L 50, MZ 30, Z 20.
The yolk carotenoids were measured in mixtures prepared from all eggs collected at baseline, three and six weeks.
Yolks were individually weighed and mixed with phosphate-buffered saline and made up to 50 ml. Two ml of each suspension was mixed in a separate universal tube for each of the three batches separately and stored at −40 C.
The egg yolk suspension (0.1 ml) was mixed with 0.15 ml aqueous KOH (25 gl100 mlwater), 0.15 ml absolute ethyl alcohol and 0.1 ml echinenone (internal standard, 0.4 mg/500 ml ethyl alcohol) in a glass extraction tube and incubated at 45 C for 45 minutes.
Solutions were then cooled and mixed vigorously with 1.5 ml hexane (containing BHT500 mg/l) and centrifuged to separate the hexane and aqueous layers. One ml of the upper hexane layer was transferred to an evaporating tube and the residue was re-extracted with 1.5 ml hexane. After centrifuging, 1.5 ml of the upper layer was removed and the extracts combined and evaporated to dryness under nitrogen at 40 C. The residue was made up to 0.15 ml with mobile phase (see Ultracarb HPLC below) and 0.1 ml was injected onto a Ultra Carb Column for HLPC analysis.
Separation and quantitation of the MZ was achieved using a two column procedure.
Ultracarb procedure: Extracts prepared as described above were reconstituted in a mobile phase comprising acetonitrile:methanol (85:15 containing 0.1% triethylamine). Using the same solvent mixture at 1.5 ml/min, extracts were chromatographed isocratically using a 3 micro m Ultracarb ODS column (250×4.6 mm, Phenomenex, UK) and detected using a photodiode-array detector (model 2996, Waters Ltd) to quantify L and Z+MZ at 450 nm. Eluent that coincided with the emergence of MZ+Z was collected from the waste line and evaporated to dryness under nitrogen.
Chiral chromoatography: The Z+MZ extract was then reconstituted in 0.1 ml of hexane:isopropanol (90:10) and 50 uL was chromatographed on a 10 micro m Chiralpak® AD column (250×4.6 mm; Chiral Technologies Europe, 67404 Illkirch Cedex, France) to determine the proportion of MZ and Z isomers using gradient elution at 0.8 ml/min starting with 90% hexane and 10% isopropyl alcohol and increasing to 95% hexane in a linear gradient over 30 minutes.

[1] = Plasma carotenoids in one person consuming one egg per day (HPLC); conditions: human, in vivo
Method: The objective of this study was to feed hens a mixture of L, MZ and Z to determine the total amount of MZ in the yolk. In addition 24 eggs collected at the end of the experiment were consumed by one subject, one egg/day and the blood MZ composition determined.
Blood (10 ml) from a human subject was collected in lithium heparin tubes at baseline, day 12 and day 24 after consumption of one egg per day and centrifuged to provide plasma subsequently stored at −40 C. Plasma, 0.25 ml was mixed with 0.2 ml sodium dodecyl sulphate, 0.4 ml ethyl acetate (internal standard). Hexane containing BHT (1.0 ml) was added and the mixture extracted vigorously for 4 minutes, centrifuged for 10 mins and 0.7 ml of the upper hexane layer removed and evaporated to dryness.
The residue was made up to 0.1 ml with mobile phase (see HPLC procedure below) and 0.05 ml was injected onto the column.

[2] = feeding 250 ppm of the carotenoid mixture for 3 weeks

concentration at 12 day [1] [nM] | concentration at 24 day [1] [nM] | contents of plasma in one person consuming one egg per day [1] [micro moles per litre] | SMILES | contents of egg yolks from chicken fed 250 mg/kg mixed carotenoids (Bovan Goldline hens; Weeks 0 (baseline)) [micro grams per yolk] | contents of egg yolks from chicken fed 250 mg/kg mixed carotenoids (Bovan Goldline hens; Weeks 3) [micro grams per yolk] | contents of egg yolks from chicken fed 250 mg/kg mixed carotenoids (Bovan Goldline hens; Weeks 6) [micro grams per yolk] | share of the yolk carotenoid content (Bovan Goldline hens; [2]) | content of egg yolks (Bovan Goldline hens; [2]) [mg MZ/yolk]
1200 | 1060 | 0.55 | CC1=C[C@H](O)CC(C)(C)[C@H]1/C=C/C(C)=C/C=C/C(C)=C/C=C/C=C(C)/C=C/C=C(C)/C=C/C1=C(C)C[C@@H](O)CC1(C)C [L, lutein] | 563 | 2100 | 2260 | circa 76% | 
 |  |  | CC1=C(/C=C/C(C)=C/C=C/C(C)=C/C=C/C=C(C)/C=C/C=C(C)/C=C/C2=C(C)C[C@H](O)CC2(C)C)C(C)(C)C[C@H](O)C1 [MZ, (trans, 3R, 3′S meso)-zeaxanthin] | 0 | 315 | 272 | 11% | 2.78
 |  |  | CC1=C(/C=C/C(C)=C/C=C/C(C)=C/C=C/C=C(C)/C=C/C=C(C)/C=C/C2=C(C)C[C@@H](O)CC2(C)C)C(C)(C)C[C@H](O)C1 [Z, zeaxanthin] | 278 | 366 | 328 | 13% | 
